Experimental data as given in article PMC9024338, “Bruceine H Mediates EGFR-TKI Drug Persistence in NSCLC by Notch3-Dependent β-Catenin Activating FOXO3a Signaling” (Frontiers in Oncology, 2022).
“And” between values parts separate entries of the source, which are not always exact repeats. Equal values may be shown once. Read-outs that look alike come from different tables or passages of the source.

Assay: Preliminary pharmacokinetics in SD rats
Type: in vivo
Conditions: for AUC(0-inf) / AUC(0-t) / clearance / half-life / Cmax / Vd / concentration at 5 min / concentration at 10 min / concentration at 0.25 h / concentration at 0.5 h / concentration at 0.75 h / concentration at 1 h / concentration at 2 h / concentration at 4 h / concentration at 6 h / concentration at 8 h / concentration at 12 h / concentration at 24 h / MRT inf / k el: male, SD, rat, plasma; for Cmax: read-out: Maximum concentration (C max)
Protocol: We administered BH by gavage and intravenous administration to SD rats (male, 200–220 g, n = 6) after they had fasted for 12 h. For oral gavage, the BH was dissolved in DMSO/0.5% CMC-Na (5/95, v/v/), and for intravenous administration, it was dissolved in DMSO/0.9% NaCl (5/95, v/v/), and then the blood samples were collected at intervals to determine the pharmacokinetic (PK) profiles of SD rats.

CC1=CC(=O)[C@@H](O)[C@]2(C)[C@H]3[C@@H](O)[C@H](O)[C@@]4(CO)OC[C@@]35[C@@H](C[C@@H]12)OC(=O)[C@H](O)[C@]54O [BH, Bruceine H]
Concentration of BH in rat plasma, individual rats No1-No3 (i.v. 2 mg/kg, 5 min, 2 mg/kg): 484.6 ng/mL and 469.6 ng/mL | Concentration of BH in rat plasma, individual rats No1-No3 (i.v. 2 mg/kg, 10 min, 2 mg/kg): 455.4 ng/mL and 450.6 ng/mL | Concentration of BH in rat plasma, individual rats No1-No3 (i.v. 2 mg/kg, 0.25 h, 2 mg/kg): 398.5 ng/mL and 384.2 ng/mL | Concentration of BH in rat plasma, individual rats No1-No3 (i.v. 2 mg/kg, 0.5 h, 2 mg/kg): 245.3 ng/mL and 234.1 ng/mL | Concentration of BH in rat plasma, individual rats No1-No3 (i.v. 2 mg/kg, 0.75 h, 2 mg/kg): 177.7 ng/mL and 180.4 ng/mL | Concentration of BH in rat plasma, individual rats No1-No3 (i.v. 2 mg/kg, 1 h, 2 mg/kg): 135.4 ng/mL and 119.6 ng/mL | Concentration of BH in rat plasma, individual rats No1-No3 (i.v. 2 mg/kg, 2 h, 2 mg/kg): 95.3 ng/mL and 98.5 ng/mL | Concentration of BH in rat plasma, individual rats No1-No3 (i.v. 2 mg/kg, 4 h, 2 mg/kg): 55.4 ng/mL and 51.2 ng/mL | Concentration of BH in rat plasma, individual rats No1-No3 (i.v. 2 mg/kg, 6 h, 2 mg/kg): 40.4 ng/mL and 42.1 ng/mL | Concentration of BH in rat plasma, individual rats No1-No3 (i.v. 2 mg/kg, 8 h, 2 mg/kg): 18.8 ng/mL and 25.4 ng/mL | Concentration of BH in rat plasma, individual rats No1-No3 (i.v. 2 mg/kg, 12 h, 2 mg/kg): 12.3 ng/mL and 21.3 ng/mL | Concentration of BH in rat plasma, individual rats No1-No3 (i.v. 2 mg/kg, 24 h, 2 mg/kg): 6.3 ng/mL and 10.2 ng/mL | AUC(0-inf) (iv, 2 mg/kg, SD rats, 2 mg/kg iv, read-out: AUC0–inf): 1050 ng·h/mL | AUC(0-t) (iv, 2 mg/kg, SD rats, 2 mg/kg iv, read-out: AUC0–last): 944 ng·h/mL | clearance (iv, 2 mg/kg, SD rats, 2 mg/kg iv, read-out: Clearance (CL) (converted)): 31.9 mL/min/kg | half-life (iv, 2 mg/kg, SD rats, 2 mg/kg iv, read-out: Half-life (T 1/2) (converted)): 582 min | Cmax (iv, 2 mg/kg, SD rats, 2 mg/kg iv): 477 ng/mL | Vd (iv, 2 mg/kg, SD rats, 2 mg/kg iv, read-out: Volume of distribution (V ss)): 26.5 L/kg | concentration at 5 min (iv, 2 mg/kg, i.v. 2 mg/kg, 5 min, read-out: Concentration of BH in rat plasma, Mean): 477 ng/mL | concentration at 5 min (iv, 2 mg/kg, i.v. 2 mg/kg, 5 min, read-out: Concentration of BH in rat plasma, individual rats No1-No3): 478 ng/mL | concentration at 10 min (iv, 2 mg/kg, i.v. 2 mg/kg, 10 min, read-out: Concentration of BH in rat plasma, Mean): 442 ng/mL | concentration at 10 min (iv, 2 mg/kg, i.v. 2 mg/kg, 10 min, read-out: Concentration of BH in rat plasma, individual rats No1-No3): 420 ng/mL | concentration at 0.25 h (iv, 2 mg/kg, i.v. 2 mg/kg, 0.25 h, read-out: Concentration of BH in rat plasma, Mean): 384 ng/mL | concentration at 0.25 h (iv, 2 mg/kg, i.v. 2 mg/kg, 0.25 h, read-out: Concentration of BH in rat plasma, individual rats No1-No3): 371 ng/mL | concentration at 0.5 h (iv, 2 mg/kg, i.v. 2 mg/kg, 0.5 h, read-out: Concentration of BH in rat plasma, Mean): 236 ng/mL | concentration at 0.5 h (iv, 2 mg/kg, i.v. 2 mg/kg, 0.5 h, read-out: Concentration of BH in rat plasma, individual rats No1-No3): 228 ng/mL | concentration at 0.75 h (iv, 2 mg/kg, i.v. 2 mg/kg, 0.75 h, read-out: Concentration of BH in rat plasma, Mean): 177 ng/mL | concentration at 0.75 h (iv, 2 mg/kg, i.v. 2 mg/kg, 0.75 h, read-out: Concentration of BH in rat plasma, individual rats No1-No3): 172 ng/mL | concentration at 1 h (iv, 2 mg/kg, i.v. 2 mg/kg, 1 h, read-out: Concentration of BH in rat plasma, Mean): 127 ng/mL | concentration at 1 h (iv, 2 mg/kg, i.v. 2 mg/kg, 1 h, read-out: Concentration of BH in rat plasma, individual rats No1-No3): 125 ng/mL | concentration at 2 h (iv, 2 mg/kg, i.v. 2 mg/kg, 2 h, read-out: Concentration of BH in rat plasma, Mean): 99.1 ng/mL | concentration at 2 h (iv, 2 mg/kg, i.v. 2 mg/kg, 2 h, read-out: Concentration of BH in rat plasma, individual rats No1-No3): 104 ng/mL | concentration at 4 h (iv, 2 mg/kg, i.v. 2 mg/kg, 4 h, read-out: Concentration of BH in rat plasma, Mean): 54.9 ng/mL | concentration at 4 h (iv, 2 mg/kg, i.v. 2 mg/kg, 4 h, read-out: Concentration of BH in rat plasma, individual rats No1-No3): 58 ng/mL | concentration at 6 h (iv, 2 mg/kg, i.v. 2 mg/kg, 6 h, read-out: Concentration of BH in rat plasma, Mean): 40 ng/mL | concentration at 6 h (iv, 2 mg/kg, i.v. 2 mg/kg, 6 h, read-out: Concentration of BH in rat plasma, individual rats No1-No3): 37.6 ng/mL | concentration at 8 h (iv, 2 mg/kg, i.v. 2 mg/kg, 8 h, read-out: Concentration of BH in rat plasma, Mean): 24.5 ng/mL | concentration at 8 h (iv, 2 mg/kg, i.v. 2 mg/kg, 8 h, read-out: Concentration of BH in rat plasma, individual rats No1-No3): 29.2 ng/mL | concentration at 12 h (iv, 2 mg/kg, i.v. 2 mg/kg, 12 h, read-out: Concentration of BH in rat plasma, Mean): 17.9 ng/mL | concentration at 12 h (iv, 2 mg/kg, i.v. 2 mg/kg, 12 h, read-out: Concentration of BH in rat plasma, individual rats No1-No3): 20 ng/mL | concentration at 24 h (iv, 2 mg/kg, i.v. 2 mg/kg, 24 h, read-out: Concentration of BH in rat plasma, Mean): 7.37 ng/mL | concentration at 24 h (iv, 2 mg/kg, i.v. 2 mg/kg, 24 h, read-out: Concentration of BH in rat plasma, individual rats No1-No3): 5.6 ng/mL | AUC(0-t) (iv, 2 mg/kg, i.v., read-out: AUC (0-t), Mean): 944 ng·h/mL | AUC(0-t) (iv, 2 mg/kg, i.v., read-out: AUC (0-t), individual rats No1-No3): 965 ng·h/mL | AUC(0-inf) (iv, 2 mg/kg, i.v., read-out: AUC (0-∞), individual rats No1-No3): 1020 ng·h/mL | clearance (iv, 2 mg/kg, i.v., read-out: CLz, Mean (converted)): 31.9 mL/min/kg | clearance (iv, 2 mg/kg, i.v., read-out: CLz, individual rats No1-No3 (converted)): 32.7 mL/min/kg | concentration at 24 h (iv, 2 mg/kg, i.v., read-out: C_last, Mean): 7.35 ng/mL | concentration at 24 h (iv, 2 mg/kg, i.v., read-out: C_last, individual rats No1-No3): 5.6 ng/mL | MRT inf (iv, 2 mg/kg, i.v., read-out: MRT (0-∞), Mean): 8.44 h | MRT inf (iv, 2 mg/kg, i.v., read-out: MRT (0-∞), individual rats No1-No3): 6.47 h | Vd (iv, 2 mg/kg, i.v., read-out: Vz, Mean): 26.5 L/kg | Vd (iv, 2 mg/kg, i.v., read-out: Vz, individual rats No1-No3): 18.6 L/kg | half-life (iv, 2 mg/kg, i.v., read-out: t1/2z, Mean (converted)): 582 min | half-life (iv, 2 mg/kg, i.v., read-out: t1/2z, individual rats No1-No3 (converted)): 393 min | k el (iv, 2 mg/kg, i.v., read-out: λz, Mean (converted)): 2.11e-05 s⁻¹ | k el (iv, 2 mg/kg, i.v., read-out: λz, individual rats No1-No3 (converted)): 2.94e-05 s⁻¹ | AUC(0-inf) (po, 10 mg/kg, SD rats, 10 mg/kg po, read-out: AUC0–inf): 976 ng·h/mL | AUC(0-t) (po, 10 mg/kg, SD rats, 10 mg/kg po, read-out: AUC0–last): 961 ng·h/mL | half-life (po, 10 mg/kg, SD rats, 10 mg/kg po, read-out: Half-life (T 1/2) (converted)): 201 min | Cmax (po, 10 mg/kg, SD rats, 10 mg/kg po): 147 ng/mL | concentration at 0.25 h (po, 10 mg/kg, p.o. 10 mg/kg, 0.25 h, read-out: Concentration of BH in rat plasma, Mean): 11.8 ng/mL | concentration at 0.25 h (po, 10 mg/kg, p.o. 10 mg/kg, 0.25 h, read-out: Concentration of BH in rat plasma, individual rats No1-No3): 13.6 ng/mL | concentration at 0.5 h (po, 10 mg/kg, p.o. 10 mg/kg, 0.5 h, read-out: Concentration of BH in rat plasma, Mean): 58.1 ng/mL | concentration at 0.5 h (po, 10 mg/kg, p.o. 10 mg/kg, 0.5 h, read-out: Concentration of BH in rat plasma, individual rats No1-No3): 68.4 ng/mL | concentration at 0.75 h (po, 10 mg/kg, p.o. 10 mg/kg, 0.75 h, read-out: Concentration of BH in rat plasma, Mean): 104 ng/mL | concentration at 0.75 h (po, 10 mg/kg, p.o. 10 mg/kg, 0.75 h, read-out: Concentration of BH in rat plasma, individual rats No1-No3): 111 ng/mL | concentration at 1 h (po, 10 mg/kg, p.o. 10 mg/kg, 1 h, read-out: Concentration of BH in rat plasma, Mean): 147 ng/mL | concentration at 1 h (po, 10 mg/kg, p.o. 10 mg/kg, 1 h, read-out: Concentration of BH in rat plasma, individual rats No1-No3): 154 ng/mL | concentration at 2 h (po, 10 mg/kg, p.o. 10 mg/kg, 2 h, read-out: Concentration of BH in rat plasma, Mean): 123 ng/mL | concentration at 2 h (po, 10 mg/kg, p.o. 10 mg/kg, 2 h, read-out: Concentration of BH in rat plasma, individual rats No1-No3): 130 ng/mL | concentration at 4 h (po, 10 mg/kg, p.o. 10 mg/kg, 4 h, read-out: Concentration of BH in rat plasma, Mean): 101 ng/mL | concentration at 4 h (po, 10 mg/kg, p.o. 10 mg/kg, 4 h, read-out: Concentration of BH in rat plasma, individual rats No1-No3): 115 ng/mL | concentration at 6 h (po, 10 mg/kg, p.o. 10 mg/kg, 6 h, read-out: Concentration of BH in rat plasma, Mean): 80.5 ng/mL
